Earlier results, collected in US20180191016A1, “FLOW BATTERIES INC[…] PHE[…] WITHIN AN AQUEOUS ELECTROLYTE SOLUTION” (LOCKHEED MARTIN ADVANCED ENERGY STORAGE, LLC, priority 2017, published 2018).

Conditions: compared to a reversible hydrogen electrode

Question: With c1ccc2c(c1)Nc1ccccc1S2 [phenothiazine] as the compound, how does the standard reduction potential read?
Answer: approximately +0.9 V
